Source: US20240124389A1, “COMPOUND OR SALT THEREOF, LIPID PARTICLES, AND PHARMACEUTICAL COMPOSITION” (FUJIFILM Corporation, priority 2021, published 2024)

Assays:
human EPO = assay: Measurement of EPO enzyme activity (EPO protein in blood plasma of mice after intravenous administration of EPO mRNA lipid particles); format: in vivo; conditions: C57BL/6J mice, tail-vein i.v., mRNA 0.1 mg/kg, plasma 20 to 24 hours, lipid/nucleic acid 64 wt/wt
Method: (§1) The compounds described in Table 1, the neutral lipid, cholesterol (product name: Cholesterol HP; NIPPON FINE CHEMICAL CO., LTD.), and 1,2-dimyristoyl-rac-glycero-3-(methylpolyoxyethylene 2000) (hereinafter, called DMG-PEG2000) (product name: SUNBRIGHT® GM-020; NOF corporation) were dissolved in ethanol at a molar ratio in Table 1 such that the total lipid concentration became 20 mmol/L, thereby obtaining an oil phase.
(§2) As the neutral lipid, 1,2-distearoyl-sn-glycero-3-phosphocholine (product name: COATSOME® MC-8080; NOF corporation) (hereinafter, DSPC), or L-α-dioleoyl phosphatidylethanolamine (Hereinafter, DOPE) (product name: COATSOME® ME-8181; NOF corporation), or 1,2-dioleoyl-sn-glycero-3-phosphocholine (hereinafter, DOPC) (product name: COATSOME® MC-8181; NOF corporation) was used.
(§3) EPO mRNA (product name: CleanCap EPO mRNA (5moU); TriLink) was diluted with 50 mmol/L citrate buffer having a pH 4 such that the weight ratio of total lipid concentration to mRNA concentration is about 16:1 to 64:1, thereby obtaining a water phase. Then, the water phase and the oil phase were mixed together using NanoAssemblr (Precision NanoSystems) such that the volume ratio of water phase:oil phase was 3:1, and the mixed solution was 1.5-fold diluted with phosphate buffered saline (PBS), thereby obtaining a dispersion liquid of mRNA lipid particles. The dispersion liquid was dialyzed with a 10% aqueous sucrose solution using a dialysis cassette (Slide-A-Lyzer G2, MWCO: 10 kD, Thermo Fisher Scientific) to remove ethanol, thereby obtaining EPO mRNA-encapsulating lipid particles.
The dispersion liquid of mRNA lipid particles prepared in above-described <Preparation of EPO mRNA-encapsulating lipid particles> was tail-vein intravenously administered to C57BL/6J mice at a mRNA dosage of 0.1 mg/kg. 20 to 24 hours after the administration, blood was collected from the caudal vena cava, thereby obtaining blood plasma. The human EPO enzyme activity was quantified by using the obtained blood plasma and ab119522 Erythropoietin (EPO) Human Elisa Kit (Abcam.plc). The quantitative value is described as a relative amount of EPO protein in a case where Comparative Example 1 is 1.

FLuc mRNA = assay: mRNA encapsulation rate of FLuc mRNA-encapsulating lipid particles; format: physicochemical; conditions: aminolipid 45 / DOPE 10 / cholesterol 43.5 / DMG-PEG2000 1.5 mol %, lipid/nucleic acid 32 wt/wt
Method: as §1, with “Table 2,” for “Table 1,”, “HP; NTPPON” for “HP; NIPPON”, “DMG-PEG2000)” for “DMG-PEG2000) (product name: SUNBRIGHT® GM-020; NOF corporation)”, “Table 2” for “Table 1”
(§4) As the neutral lipid, 1,2-distearoyl-sn-glycero-3-phosphocholine (product name: COATSOME® MC-8080; NOF corporation) was used in a case of Comparative Example 1, and L-α-dioleoylphosphatidylethanolamine (product name: COATSOME® MC-8181; NOF corporation) was used in a case other than Comparative Example 1.
as §3, with “FLuc” for “EPO”, “(5 moU);” for “(5moU);”, “19:1” for “16:1”, “64:1,” for “64:1, thereby”
(§5) 15 to 30 μL of a 3 mol/L aqueous sodium acetate solution and 4.5 to 9 μL of glycogen were added to 30 to 60 μL of the lipid particles retaining mRNA, and 0.75 to 1.5 mL of ethanol was added thereto, so that only the nucleic acids were precipitated while the lipid was dissolved. Then, the supernatant was removed by centrifugation. The precipitates were air-dried for 15 minutes or longer, then water was added thereto to redissolve the precipitates, and the concentration thereof was measured using Nanodrop NF1000 (Thermo Fisher Scientific), thereby quantifying the total mRNA concentration.
(§6) The mRNA concentration was quantified using a Quant-iT RiboGreen RNA Assay Kit (Thermo Fisher Scientific) according to the protocol. First, a 20×TE buffer included in the above-described kit was diluted with water, thereby obtaining a 1×TE buffer. TE represents Tris/EDTA (ethylenediaminetetraacetic acid). In order to quantify only mRNA in the outer water phase, the dispersion liquid of lipid particles retaining mRNA was 10,000-fold diluted with the 1×TE buffer. 100 μL of the 10,000-fold diluted dispersion liquid of lipid particles was put into a 96-well plate, then 100 μL of a RiboGreen reagent (reagent included in the Quanti-iT Ribogreen RNA Assay Kit described above) 2,000-fold diluted with the 1×TE buffer was added to a sample, and fluorescence (excitation wavelength: 485 nm, fluorescence wavelength: 535 nm) was measured using a plate reader Infinite F200 (TECAN), thereby quantifying the mRNA concentration in the outer water phase.
(§7) By using the quantification results of the total mRNA concentration and the mRNA concentration in the outer water phase that were obtained through the above steps, the mRNA encapsulation rate of the mRNA lipid particles was calculated according to the following Equation.
(§8) mRNA encapsulation rate (%)=(total mRNA concentration-mRNA concentration in outer water phase)/total mRNA concentration×100

EPO mRNA = assay: mRNA encapsulation rate of EPO mRNA-encapsulating lipid particles; format: physicochemical; conditions: lipid/nucleic acid 64 wt/wt
Method: as §1, §2, §3, §5, §6, §7, §8

[1] = Particle size of FLuc mRNA-encapsulating lipid particles; format: physicochemical; conditions: aminolipid 45 / DOPE 10 / cholesterol 43.5 / DMG-PEG2000 1.5 mol %, lipid/nucleic acid 32 wt/wt
Method: as §1, with “Table 2,” for “Table 1,”, “HP; NTPPON” for “HP; NIPPON”, “DMG-PEG2000)” for “DMG-PEG2000) (product name: SUNBRIGHT® GM-020; NOF corporation)”, “Table 2” for “Table 1”
as §4
as §3, with “FLuc” for “EPO”, “(5 moU);” for “(5moU);”, “19:1” for “16:1”, “64:1,” for “64:1, thereby”
(§9) The particle size of the mRNA-encapsulating lipid particles was measured by 10-fold diluting the dispersion liquid of lipid particle with phosphate buffered saline (PBS) using Zeta-potential & Particle size Analyzer ELS-Z2 (Otsuka Electronics Co., Ltd.).

[2] = Particle size of EPO mRNA-encapsulating lipid particles; format: physicochemical; conditions: lipid/nucleic acid 64 wt/wt
Method: as §1, §2, §3, §9

[3] = aminolipid 45 / DOPE 10 / cholesterol 43.5 / DMG-PEG2000 1.5 mol %
[4] = aminolipid 50 / DOPE 10 / cholesterol 38.5 / DMG-PEG2000 1.5 mol %

| SMILES | Relative amount of EPO protein (with respect to Comparative Example 1) (human EPO; [3]) | Nucleic acid encapsulation rate (FLuc mRNA) [%] | Nucleic acid encapsulation rate (EPO mRNA; [3]) [%] | Particle size [1] [nm] | Particle size [2, 3] [nm] | Relative amount of EPO protein (with respect to Comparative Example 1) (human EPO; [4]) | Nucleic acid encapsulation rate (EPO mRNA; [4]) [%] | Particle size [2, 4] [nm] |
| --- | --- | --- | --- | --- | --- | --- | --- | --- |
| CCCCCCSCCOC(=O)CCCC(CCCC(=O)OCCSCCCCCC)OC(=O)OCCN(CCOC(=O)OC(CCCC(=O)OCCSCCCCCC)CCCC(=O)OCCSCCCCCC)CCN(CC)CC [Example 43, Bis(2-(hexylthio)ethyl) 11-(2-(diethylamino)ethyl)-5,17-bis(4-(2-(hexylthio)ethoxy)-4-oxobutyl)-7,15-dioxo-6,8,14,16-tetraoxa-11-azahenicosanedioate] | 3.12 | 100.0 | 95.7 | 144 | 155.0 | – | – | – |
| CCCCCCCOC(=O)CCC(CCC(=O)OCCCCCCC)OC(=O)OCCN(CCOC(=O)OC(CCC(=O)OCCCCCCC)CCC(=O)OCCCCCCC)CCN(CC)CC [Example 39, Diheptyl 10-(2-(diethylamino)ethyl)-4,16-bis(3-(heptyloxy)-3-oxopropyl)-6,14-dioxo-5,7,13,15-tetraox a-10-azanonadecanedioate] | – | 90.1 | – | 141.1 | – | 8.03 | 93.8 | 147.2 |
| CCCCCCCOC(=O)CCCC(CCCC(=O)OCCCCCCC)OC(=O)OCCN(CCCN(CC)CC)CCOC(=O)OC(CCCC(=O)OCCCCCCC)CCCC(=O)OCCCCCCC [Example 38, Diheptyl 11-(3-(diethylamino)propyl)-5,17-bis(4-(heptyloxy)-4-oxobutyl)-7,15-dioxo-6,8,14,16-tetraox a-11-azahenicosanedioate] | – | 99.7 | – | 116 | – | 2.13 | 100.0 | 101.4 |
| CCCCCCOC(=O)CCCC(CCCC(=O)OCCCCCC)OC(=O)OCCN(CCOC(=O)OC(CCCC(=O)OCCCCCC)CCCC(=O)OCCCCCC)CCN(CC)CC [Example 32, Dihexyl 11-(2-(diethylamino)ethyl)-5,17-bis(4-(hexyloxy)-4-oxobutyl)-7,15-dioxo-6,8,14,16-tetraoxa-11-azahenicosanedioate] | – | – | – | – | – | 4.03 | 95.5 | 165.3 |
| CCCCCC(CCCCC)COC(=O)CCCC(CCCC)OC(=O)OCCN(CCOC(=O)OC(CCCC)CCCC(=O)OCC(CCCCC)CCCCC)CCN(CC)CC (stereo not shown) [Example 22, Bis(2-pentylheptyl) 5,17-dibutyl-11-(2-(diethylamino)ethyl)-7,15-dioxo-6,8,14,16-tetraoxa-11-azahenicosanedioate] | – | 98.7 | – | 95 | – | 4.69 | 98.6 | 78.3 |
| CCN(CC)CCN(CCOC(=O)OC(CCCC(=O)OCCCCCCCCSC)CCCC(=O)OCCCCCCCCSC)CCOC(=O)OC(CCCC(=O)OCCCCCCCCSC)CCCC(=O)OCCCCCCCCSC [Example 44, Bis(8-(methylthio)octyl) 11-(2-(diethylamino)ethyl)-5,17-bis(4-((8-(methylthio)octyl)oxy)-4-oxobutyl)-7,15-dioxo-6,8,14,16-tetraoxa-11-azahenicosanedioate] | 1.39 | 100.0 | 81.2 | 170.5 | 201.9 | – | – | – |
| CCCCCCCCCOC(=O)CCCC(CCCC(=O)OCCCCCCCCC)OC(=O)OCCN(CCOC(=O)OC(CCCC(=O)OCCCCCCCCC)CCCC(=O)OCCCCCCCCC)CCN(CC)CC [Example 34, Dinonyl 11-(2-(diethylamino)ethyl)-5,17-bis(4-(nonyloxy)-4-oxobutyl)-7,15-dioxo-6,8,14,16-tetraoxa-11-azahenicosanedioate] | – | – | – | – | – | 1.20 | 100.0 | 99.2 |
| CCCCCCCC(CCCC(=O)OCC(CCCCC)CCCCC)OC(=O)OCCN(CCOC(=O)OC(CCCCCCC)CCCC(=O)OCC(CCCCC)CCCCC)CCN(CC)CC (stereo not shown) [Example 24, Bis(2-pentylheptyl) 11-(2-(diethylamino)ethyl)-5,17-diheptyl-7,15-dioxo-6,8,14,16-tetraoxa-11-azahenicosanedioate] | – | – | – | – | – | 1.46 | 97.9 | 80.6 |
| CCCCCCC(CCCC(=O)OCC(CCCCC)CCCCC)OC(=O)OCCN(CCOC(=O)OC(CCCCCC)CCCC(=O)OCC(CCCCC)CCCCC)CCN(C)C (stereo not shown) [Example 11, Bis(2-pentylheptyl) 11-(2-(dimethylamino)ethyl)-5,17-dihexyl-7,15-dioxo-6,8,14,16-tetraoxa-11-azahenicosanedio ate] | – | – | – | – | – | 2.70 | 98.6 | 73.2 |
